Format in all cases: cell-based
The target in test [1] is T1, human TLR7 (Homo sapiens, UniProt Q9NYK1).
T1 construct: host or cells: HEK-Blue cells
T1 sequence (Q9NYK1 27-1049): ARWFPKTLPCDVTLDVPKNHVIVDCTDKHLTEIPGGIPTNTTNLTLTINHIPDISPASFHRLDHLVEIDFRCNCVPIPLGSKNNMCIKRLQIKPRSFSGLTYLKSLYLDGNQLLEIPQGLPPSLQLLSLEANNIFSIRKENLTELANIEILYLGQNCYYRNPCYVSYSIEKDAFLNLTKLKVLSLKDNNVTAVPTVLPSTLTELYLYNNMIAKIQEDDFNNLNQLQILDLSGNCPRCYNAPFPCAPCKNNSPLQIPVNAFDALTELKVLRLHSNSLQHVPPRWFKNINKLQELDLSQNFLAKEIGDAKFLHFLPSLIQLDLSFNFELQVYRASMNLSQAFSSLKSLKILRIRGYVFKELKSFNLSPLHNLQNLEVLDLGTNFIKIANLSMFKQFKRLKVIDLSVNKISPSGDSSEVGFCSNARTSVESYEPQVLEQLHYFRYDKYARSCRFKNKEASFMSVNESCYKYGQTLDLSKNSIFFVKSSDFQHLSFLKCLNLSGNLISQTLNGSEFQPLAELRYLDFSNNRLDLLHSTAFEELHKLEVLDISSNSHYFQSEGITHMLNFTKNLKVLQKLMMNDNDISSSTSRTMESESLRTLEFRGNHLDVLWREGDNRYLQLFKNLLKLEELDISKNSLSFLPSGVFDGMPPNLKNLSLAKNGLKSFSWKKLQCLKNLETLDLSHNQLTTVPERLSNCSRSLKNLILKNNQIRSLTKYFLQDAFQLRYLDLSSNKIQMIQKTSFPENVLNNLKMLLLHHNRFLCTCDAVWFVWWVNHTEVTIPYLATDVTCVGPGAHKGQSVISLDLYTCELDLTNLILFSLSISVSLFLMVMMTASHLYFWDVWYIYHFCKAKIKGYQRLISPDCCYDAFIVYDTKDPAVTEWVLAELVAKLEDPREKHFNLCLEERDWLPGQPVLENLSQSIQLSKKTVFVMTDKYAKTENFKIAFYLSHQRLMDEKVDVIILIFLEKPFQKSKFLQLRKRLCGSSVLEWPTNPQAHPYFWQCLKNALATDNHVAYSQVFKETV
The experiment in a line: TLR7 inhibition reporter assay (HEK-Blue SEAP reporter). The settings on record: HEK-Blue cells overexpressing human TLR7; gardiquimod 7.5 μM; 22 hour incubation. The method, boiled down:
(§1)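 Agonists used: gardiquimod 7.5 μM (TLR7), R848 15.9 μM (TLR8), ODN2006 5 nM (TLR9), added after 30 min room-temperature compound pre-treatment (0.05 nM–50 μM) of receptor-overexpressing HEK-Blue cells. SEAP reporter (NF-κB/AP-1 driven) read after 22 h at 37 °C; inhibition scaled between agonist+DMSO and reference-inhibitor wells.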
Background: A reporter such as luciferase makes a cellular process visible.

Test [2] concerns the target T2, human TLR8 (Homo sapiens, UniProt Q9NR97).
T2 construct: host or cells: HEK-Blue cells
T2 sequence (Q9NR97 27-1041): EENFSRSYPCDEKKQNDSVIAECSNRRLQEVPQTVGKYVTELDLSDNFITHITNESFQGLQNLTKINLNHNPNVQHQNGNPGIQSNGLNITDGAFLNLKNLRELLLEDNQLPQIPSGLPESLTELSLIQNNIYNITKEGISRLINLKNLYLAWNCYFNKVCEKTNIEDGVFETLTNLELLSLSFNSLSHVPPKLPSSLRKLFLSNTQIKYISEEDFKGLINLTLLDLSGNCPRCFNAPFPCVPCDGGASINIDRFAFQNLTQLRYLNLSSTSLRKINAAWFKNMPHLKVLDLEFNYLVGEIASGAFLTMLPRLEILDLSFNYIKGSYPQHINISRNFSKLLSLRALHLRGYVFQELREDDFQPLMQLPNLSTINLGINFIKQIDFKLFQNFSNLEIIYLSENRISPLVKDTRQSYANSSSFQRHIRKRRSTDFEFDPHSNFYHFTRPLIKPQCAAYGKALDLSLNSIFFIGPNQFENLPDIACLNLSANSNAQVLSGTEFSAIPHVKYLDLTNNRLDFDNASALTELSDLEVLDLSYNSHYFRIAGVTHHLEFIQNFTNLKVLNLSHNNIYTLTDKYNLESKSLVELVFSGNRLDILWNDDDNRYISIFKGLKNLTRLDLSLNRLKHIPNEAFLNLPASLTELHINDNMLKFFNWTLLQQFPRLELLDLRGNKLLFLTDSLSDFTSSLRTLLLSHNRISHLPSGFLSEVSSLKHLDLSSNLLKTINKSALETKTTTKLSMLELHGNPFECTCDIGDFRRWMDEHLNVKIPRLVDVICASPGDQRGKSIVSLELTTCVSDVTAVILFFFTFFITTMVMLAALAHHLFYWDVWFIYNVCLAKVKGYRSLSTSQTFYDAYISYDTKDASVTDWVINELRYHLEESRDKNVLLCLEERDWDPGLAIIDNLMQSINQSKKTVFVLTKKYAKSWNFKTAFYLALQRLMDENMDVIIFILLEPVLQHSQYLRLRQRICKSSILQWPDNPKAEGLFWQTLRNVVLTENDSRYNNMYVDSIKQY
As to the kind of experiment: TLR8 inhibition reporter assay (HEK-Blue SEAP reporter). Particulars: HEK-Blue cells overexpressing human TLR8; R848 15.9 μM; 22 hour incubation. The method, boiled down: as §1

Test [3] addresses T3, human TLR9 (Homo sapiens, UniProt Q9NR96).
T3 construct: host or cells: HEK-Blue cells
T3 sequence (Q9NR96 26-1032): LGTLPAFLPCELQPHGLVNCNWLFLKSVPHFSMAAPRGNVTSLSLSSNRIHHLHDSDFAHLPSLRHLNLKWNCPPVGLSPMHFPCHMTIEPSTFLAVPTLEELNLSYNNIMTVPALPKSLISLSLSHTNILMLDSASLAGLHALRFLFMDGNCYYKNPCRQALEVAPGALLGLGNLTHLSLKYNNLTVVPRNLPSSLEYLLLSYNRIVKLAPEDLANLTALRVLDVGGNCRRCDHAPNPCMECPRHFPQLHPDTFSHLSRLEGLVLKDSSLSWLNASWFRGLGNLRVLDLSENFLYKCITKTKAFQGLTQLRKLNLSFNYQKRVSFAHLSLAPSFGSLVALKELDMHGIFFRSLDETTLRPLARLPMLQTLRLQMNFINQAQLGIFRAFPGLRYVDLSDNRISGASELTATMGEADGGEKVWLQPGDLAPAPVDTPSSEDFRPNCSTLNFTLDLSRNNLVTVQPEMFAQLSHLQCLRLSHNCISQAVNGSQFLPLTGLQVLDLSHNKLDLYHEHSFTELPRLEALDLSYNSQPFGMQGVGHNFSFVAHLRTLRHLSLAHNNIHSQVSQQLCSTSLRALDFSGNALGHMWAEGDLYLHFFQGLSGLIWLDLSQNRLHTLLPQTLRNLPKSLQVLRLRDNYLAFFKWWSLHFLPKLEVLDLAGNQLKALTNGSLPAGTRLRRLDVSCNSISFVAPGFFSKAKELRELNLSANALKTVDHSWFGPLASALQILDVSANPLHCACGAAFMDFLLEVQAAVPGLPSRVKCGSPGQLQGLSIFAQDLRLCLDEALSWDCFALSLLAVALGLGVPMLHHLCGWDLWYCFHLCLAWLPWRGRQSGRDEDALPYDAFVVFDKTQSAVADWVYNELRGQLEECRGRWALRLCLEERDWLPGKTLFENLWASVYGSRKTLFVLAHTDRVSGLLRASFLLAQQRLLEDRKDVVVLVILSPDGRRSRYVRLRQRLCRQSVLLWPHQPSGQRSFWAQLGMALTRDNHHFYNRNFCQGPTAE
The experiment in a line: TLR9 inhibition reporter assay (HEK-Blue SEAP reporter). The settings on record: HEK-Blue cells overexpressing human TLR9; ODN2006 5 nM; 22 hour incubation. The method, boiled down: as §1

The values that follow come from patent US11306092B2, “Amino indole compounds useful as TLR inhibitors” (BRISTOL-MYERS SQUIBB COMPANY, priority 2017, dated 2022).

SMILES strings stand for the structures.

One may read the IC50 as the concentration that gives 50% inhibition. In the case of `COc1ccc(-c2[nH]c3ccc(N4CCC(N5CCCNCC5)CC4)cc3c2C(C)C)cc1OC` [Example 121, 5-(4-(1,4-diazepan-1-yl)piperidin-1-yl)-2-(3,4-dimethoxyphenyl)-3-isopropyl-1H-indole], the values for the 50% inhibitory concentration (IC50) in test [1], in test [2] and in test [3] were 15 nM, 5.2 nM and 993 nM, respectively.
As to `CCc1c(-c2ccc(OC)c(OC)c2)[nH]c2ccc(N3CCC4(CC3)CCN(C(C)C)CC4)cc12` [Example 183, 3-(2-(3,4-dimethoxyphenyl)-3-ethyl-1H-indol-5-yl)-9-isopropyl-3,9-diazaspiro[5.5]undecane], the IC50 in test [1] turned out to be 95 nM; in test [2], 59 nM; in test [3], 672 nM.
As to `CCc1c(-c2cc(OC)nc(OC)c2)[nH]c2ccc(N3CCN(C4CCN(C)CC4)CC3)cc12` [Example 156, 2-(2,6-dimethoxypyridin-4-yl)-3-ethyl-5-(4-(1-methylpiperidin-4-yl)piperazin-1-yl)-1H-indole], the 50% inhibitory concentration (IC50) in test [1] stood at 52 nM; in test [2] it was 6.6 nM; in test [3] it was 597 nM.
On to `COc1ccc(-c2[nH]c3ccc(N4CC5CCCNC5C4)cc3c2C(C)C)cc1OC` (stereo not drawn) [Example 135, 6-(2-(3,4-dimethoxyphenyl)-3-isopropyl-1H-indol-5-yl)octahydro-1H-pyrrolo[3,4-b]pyridine], for which the IC50 in test [1] turned out to be 774 nM; in test [2] it was 95 nM; in test [3], 2460 nM.
Taken in the same sequence, the figures for `COc1ccc(-c2[nH]c3ccc(NC(=O)[C@@H]4CCCC[C@@H]4N)cc3c2C(C)C)cc1OC` [Example 21, (1R,2S)-2-amino-N-(2-(3,4-dimethoxyphenyl)-3-isopropyl-1H-indol-5-yl)cyclohexane-1-carboxamide] were 128 nM, 75 nM and 1390 nM.
Taken in the same sequence, the figures for `COc1ccc(-c2[nH]c3ccc(N4CCC(N5CCN(C(C)(C)C)CC5)CC4)cc3c2C(C)C)cc1OC` [Example 90, 5-(4-(4-(tert-butyl)piperazin-1-yl)piperidin-1-yl)-2-(3,4-dimethoxyphenyl)-3-isopropyl-1H-indole] were 37 nM, 19 nM and 809 nM.
For the compound `COc1ccc(-c2[nH]c3ccc(Nc4ccc(OCCN5CCCC5)cc4)cc3c2C(C)C)cc1OC` [Example 106, 2-(3,4-dimethoxyphenyl)-3-isopropyl-N-(4-(2-(pyrrolidin-1-yl)ethoxy)phenyl)-1H-indol-5-amine], the IC50 in test [1] was 1400 nM; in test [2], 35 nM; in test [3], 1430 nM.
Consider `CCc1c(-c2ccc(OC)c(OC)c2)[nH]c2ccc(N3CCN(C4CCN(C)CC4)CC3)cc12` [Example 154, 2-(3,4-dimethoxyphenyl)-3-ethyl-5-(4-(1-methylpiperidin-4-yl)piperazin-1-yl)-1H-indole], for which the half-inhibitory concentration (IC50) in test [1] turned out to be 79 nM; in test [2], 14 nM; in test [3], 829 nM.
In the same order, the values of `Cc1cc(-c2[nH]c3ccc(N4CCC(N5CCN(C(C)C)CC5)C4=O)cc3c2C(C)C)cc(C)n1` (single isomer, unassigned) [Example 6, 1-(2-(2,6-dimethylpyridin-4-yl)-3-isopropyl-1H-indol-5-yl)-3-(4-isopropylpiperazin-1-yl) pyrrolidin-2-one] are 3.9 nM, 4.9 nM and 1020 nM.
In the same order, the values of `COc1ccc(-c2[nH]c3ccc(N4CCCC5CN(Cc6ccccc6)CC54)cc3c2C(C)C)cc1OC` (stereo not drawn) [Example 118, 6-benzyl-1-(2-(3,4-dimethoxyphenyl)-3-isopropyl-1H-indol-5-yl)octahydro-1H-pyrrolo[3,4-b]pyridine] are 1120 nM, 325 nM and 1760 nM.
Taken in the same sequence, the figures for `COCCN1CCN(C2CCN(c3ccc4[nH]c(-c5ccc(OC)c(OC)c5)c(C(C)C)c4c3)CC2)CC1` [Example 92, 2-(3,4-dimethoxyphenyl)-3-isopropyl-5-(4-(4-(2-methoxyethyl)piperazin-1-yl)piperidin-1-yl)-1H-indole] were 19 nM, 12 nM and 1750 nM.
Turning to `CC(C)c1c(-c2ccnc3[nH]ccc23)[nH]c2ccc(N3CCNCC3)cc12` [Example 128, 4-(3-isopropyl-5-(piperazin-1-yl)-1H-indol-2-yl)-1H-pyrrolo[2,3-b]pyridine], the 50% inhibitory concentration (IC50) came out at 2.3 nM in test [1], 0.41 nM in test [2] and 8100 nM in test [3].
With `COc1ccc(-c2[nH]c3ccc(NC4CCC(N5CCN(c6ccncc6)CC5)CC4)cc3c2C(C)C)cc1OC` (stereo not drawn) [Example 60, 2-(3,4-dimethoxyphenyl)-3-isopropyl-N-(4-(4-(pyridin-4-yl)piperazin-1-yl)cyclohexyl)-1H-indol-5-amine], the 50% inhibitory concentration (IC50) in test [1] worked out at 153 nM; in test [2], 112 nM; in test [3] it was 253 nM.
